Active and inactive are the calls of the source.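 Rule for the calls: active = minimum cell viability of 80% or lower across the dose range, counted as toxic; inactive = minimum cell viability above 80%.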
Assay: viability loss in fusion assay cells – cell-based, MAGI and MAGI-HeLa co-culture, cytotoxicity control for HIV-1 fusion inhibitor project, dose response (AID 2286);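 note: cells exposed to compound for at least 64 h before ATP readout; 100% = median of DMSO vehicle wells with no ATP signal meaning 0%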
Details: MAGI-CCR5 cells viability, CellTiter-Glo ATP luminescence; for minimum viability: measured here: MAGI minimum viability across doses
[1] = MAGI-HeLa co-culture viability, at 50 µM, stronger effect = lower value
[2] = at 12.5 µM, stronger effect = lower value
[3] = at 3.13 µM, stronger effect = lower value
[4] = at 1.56 µM, stronger effect = lower value
[5] = at 6.25 µM, stronger effect = lower value

Row | SMILES | viability [1] [%] | minimum viability (at 50 µM, stronger effect = lower value) [%] | viability (at 50 µM (top of the series)) | also measured
1 | CCS(=O)(=O)C1=NSC2=NC(=O)/C(=C\c3ccc(OS(=O)(=O)c4ccccc4)cc3)C(=N)N21 | 85.9 | 74.9 | – | –
2 | CCOc1cc(/C=N/NC(=O)c2ccc(-c3csc(Nc4ccc(C)cc4)n3)cc2)ccc1OCC(=O)O | 92.6 | – | 90.2% (inactive) | minimum viability [2]: 83.3%
3 | Cc1ccc(-n2c(O)c(C=Nc3ccccc3-c3n[nH]c(=S)[nH]c3=O)c3ccccc3c2=O)c(C)c1 | 85.8 | 53.6 | – | –
4 | CCc1nnc(NS(=O)(=O)c2ccc(NC(=S)NC(=O)/C=C/c3cccs3)cc2)s1 | 105 | – | 93.8% (inactive) | minimum viability (at 25 µM, stronger effect = lower value): 83.5%
5 | Cc1ccc(F)c(NC(=O)/C(C#N)=C(\O)c2ccc(C(C)(C)C)cc2)c1 | 101 | 76.4 | – | –
6 | O=C(O)CSc1cc(C(=O)c2ccccc2O)cn2c(=O)c3c4c(sc3nc12)CCCC4 | 114 | – | 93.2% (inactive) | minimum viability [2]: 92.1%
7 | O=C(O)c1cc(NC(=O)c2ccc(Br)cc2)cc(NC(=O)c2ccc(Br)cc2)c1 | 118 | – | 103% (inactive) | minimum viability [3]: 99.1%
8 | CCCCCNC(=O)c1ccc2c(=O)[nH]c3c(C(=O)NCC4CCCO4)sc(=S)n3c2c1 (centres undefined) | 105 | – | – | minimum viability (at 25 µM, stronger effect = lower value): 69.3%
9 | O=C(O)c1[nH]c2ccccc2c1C(c1cc(Br)ccc1O)c1c(C(=O)O)[nH]c2ccccc12 | 82 | 85.4 | 85.4% (inactive) | –
10 | Cc1cc(/C=c2\sc3nc4ccccc4n3c2=O)c(C)n1-c1ccc(C(=O)O)cc1 | 89 | 59.4 | – | –
11 | COc1cc(/C=C2\C(=N)N3N=C(S(C)(=O)=O)SC3=NC2=O)cc(OC)c1OCCOc1cccc(C)c1 | 120 | 82.5 | 82.5% (inactive) | –
12 | COc1ccc(NC(=O)c2c[nH]n3c(=O)cc(C4CCN(C(=O)OC(C)(C)C)CC4)nc23)cc1Cl | 94.3 | 88.3 | 88.3% (inactive) | –
13 | CC1=C(C(=O)OC(C)C)C(c2ccc(Cl)cc2)n2c(s/c(=C\c3ccc(OCC(=O)O)cc3)c2=O)=N1 (centres undefined) | 103 | 73.5 | – | –
14 | O=C1/C(=C2\C(=O)N(Cc3ccc(F)cc3)c3ccccc32)SC(=S)N1CCS(=O)(=O)O | 114 | 99.5 | 99.5% (inactive) | –
15 | Cc1ccc(-c2nn(-c3ccccc3)cc2/C=C2\SC(=S)N(CC(=O)O)C2=O)cc1 | 92.3 | – | 81.7% (inactive) | minimum viability (at 25 µM, stronger effect = lower value): 80.9%
16 | CCc1nnc(NS(=O)(=O)c2ccc(N/C=C(\C=O)c3nc4cc(Cl)ccc4o3)cc2)s1 | 99.2 | – | 90.2% (inactive) | minimum viability [2]: 84.6%
17 | O=C(Nc1ccc(Br)cc1C(=O)O)c1ccc2c(c1)C(=O)N(Cc1ccccc1)C2=O | 101 | – | 105% (inactive) | minimum viability [4]: 82.6%
18 | CCCOc1ccc(C(=O)NNC(=S)NC(=O)c2cc(-c3ccccc3)nc3ccccc23)cc1 | 112 | – | 105% (inactive) | minimum viability (at 25 µM, stronger effect = lower value): 99%
19 | CC(C)(C)OC(=O)N1CCC(c2cc(=O)n3[nH]cc(C(=O)Nc4ccc(F)c(Cl)c4)c3n2)CC1 | 98.3 | – | 97.5% (inactive) | minimum viability (at 25 µM, stronger effect = lower value): 88.7%
20 | Cc1ccc(S(=O)(=O)/N=C2/NC(=O)/C(=C/c3cc([N+](=O)[O-])ccc3O)S2)cc1 | 99.3 | 86 | 86% (inactive) | –
21 | COc1cc(/C=N/Nc2ccc(Cl)c(C(=O)O)c2)ccc1OC(=O)c1ccccc1F | 105 | – | 103% (inactive) | minimum viability [3]: 95.8%
22 | CCCCCc1c2c(cc(O)c1C(=O)O)OC(=O)c1c(cc(OC)cc1C(=O)CCCC)O2 | 82 | 84.4 | 84.4% (inactive) | –
23 | CCc1ccc(/C=C2\SC(=S)N(CCCC(=O)Nc3ccccc3C(=O)O)C2=O)cc1 | 90.6 | 70.3 | – | –
24 | COc1ccc(N=C2S/C(=C\c3ccc(OCC(=O)O)cc3)C(=O)N2CCc2c[nH]c3ccccc23)cc1 | 173 | – | 93.7% (inactive) | minimum viability (at 25 µM, stronger effect = lower value): 90.8%
25 | O=C(O)COc1ccccc1/C=N/Nc1ccc(S(=O)(=O)Nc2ccc(Cl)cc2)cc1[N+](=O)[O-] | 103 | – | 99.2% (inactive) | minimum viability (at 25 µM, stronger effect = lower value): 90.6%
26 | CSc1ccc(C(c2c(C(=O)O)[nH]c3ccccc23)c2c(C(=O)O)[nH]c3ccccc23)cc1 | 89.8 | – | 92.8% (inactive) | minimum viability [5]: 90.5%
27 | O=C(O)c1ccc(NS(=O)(=O)c2ccc3c(c2)C2C=CCC2C(c2ccccc2F)N3)cc1 (centres undefined) | 111 | – | 102% (inactive) | minimum viability [3]: 93.8%

Row | SMILES | viability [1] [%] | minimum viability (at 50 µM, stronger effect = lower value) [%] | viability (at 50 µM (top of the series)) | also measured
28 | COc1cc(/C=C2/C(=O)NN(c3ccc(Cl)cc3)C2=O)ccc1OC(=O)c1ccco1 | 115 | 96.4 | 96.4% (inactive) | –
29 | O=C1NN(c2ccc(Cl)c(Cl)c2)C(=O)/C1=C/c1ccc(-c2ccccc2C(=O)O)o1 | 121 | – | 105% (inactive) | minimum viability [4]: 89.7%
30 | CC(C)CS(=O)(=O)C1=NSC2=NC(=O)/C(=C\c3ccc(OC(=O)c4ccco4)cc3)C(=N)N21 | 104 | – | 95.1% (inactive) | minimum viability [5]: 85.3%
31 | COC(=O)c1sc(-c2ccc(C(C)(C)C)cc2)cc1NC(=O)CSCC(=O)O | 105 | 83.5 | 83.5% (inactive) | –
32 | N=C1/C(=C/c2ccc(-c3cccc(C(=O)O)c3)o2)C(=O)N=C2SC=C(c3ccccc3)N12 | 104 | 85.3 | 85.3% (inactive) | –
33 | CCOc1ccc2nc(NC(=O)CSc3nc(-c4ccccc4)c(C#N)c(=O)[nH]3)sc2c1 | 125 | – | 105% (inactive) | minimum viability (at 0.78 µM, stronger effect = lower value): 92.7%
34 | COc1cc(C(c2c(C(=O)O)[nH]c3ccccc23)c2c(C(=O)O)[nH]c3ccccc23)ccc1OCc1ccccc1 | 90.3 | – | 85.8% (inactive) | minimum viability [2]: 82.7%
35 | CC(/C=C1\SC(=S)N(c2ccc(C(=O)O)cc2)C1=O)=C\c1ccccc1 | 88 | – | 99.7% (inactive) | minimum viability (at 0.39 µM, stronger effect = lower value): 96.6%
36 | COc1cc(/C=C(\C#N)c2nc3ccc(C)cc3[nH]2)cc([N+](=O)[O-])c1O | 90.4 | 74.1 | – | –
37 | Cc1cc(N2C(=O)C(O)=C(C(=O)c3cc4ccccc4o3)C2c2cccc(Br)c2)no1 (centres undefined) | 137 | – | 87.1% (inactive) | minimum viability (at 25 µM, stronger effect = lower value): 86.4%
38 | COc1ccc(/C=C2/SC(=O)N(CCCCCC(=O)Nc3ccccc3C(=O)O)C2=S)cc1 | 122 | 66.9 | – | –
39 | COc1ccc(C(=O)Nc2ccc(/C(C)=N/NC(=O)c3ccncc3)cc2)cc1 | 121 | 88.5 | 88.5% (inactive) | –
40 | CCc1nnc(NS(=O)(=O)c2ccc(NC(=S)NC(=O)/C=C/c3ccc(C(C)C)cc3)cc2)s1 | 117 | 82.2 | 82.2% (inactive) | –
41 | CC(C)(C)c1cc(-c2csc(Nc3ccccc3)[n+]2Cc2ccc(C(=O)O)cc2)cc(C(C)(C)C)c1O | 96.4 | 72.2 | – | –
42 | Cc1ccccc1N=C1NC(=O)/C(=C/c2cccn2-c2cccc(C(=O)O)c2)S1 | 90 | – | 94.2% (inactive) | minimum viability [2]: 86.3%
43 | CCOc1cc(/C=C2\SC(=O)N(CC(=O)Nc3ccccc3F)C2=O)cc([N+](=O)[O-])c1O | 114 | 77.4 | – | –
44 | CCOC(=O)c1c(N2C(=O)Nc3cc(Cl)c(Cl)cc3N2O)sc2c1CCCCC2 | 98.1 | 70.1 | – | –
45 | O=C(CCN1C(=O)/C(=C/c2cccs2)SC1=S)Nc1ccc(C(=O)O)c(O)c1 | 104 | 66 | – | –
46 | O=C(CN1C(=O)/C(=C2\SC(=S)N(CCS(=O)(=O)O)C2=O)c2ccccc21)Nc1cccc(Br)c1 | 113 | 83.3 | 83.3% (inactive) | –
47 | CCS(=O)(=O)C1=NN2C(=N)/C(=C\c3ccc(OS(=O)(=O)c4ccccc4)c(OC)c3)C(=O)N=C2S1 | 97.9 | – | 85.5% (inactive) | minimum viability [4]: 82.4%
48 | O=C(O)CN1C(=O)/C(=C\c2cccc(OCc3ccc(Cl)cc3)c2)SC1=S | 98.9 | 83.6 | 83.6% (inactive) | –
49 | CCOC(=O)c1sc(N2C(=O)C(O)=C(C(=O)c3ccco3)C2c2cccc([N+](=O)[O-])c2)nc1C (centres undefined) | 110 | 83.5 | 83.5% (inactive) | –
50 | Cc1ccc(S(=O)(=O)Oc2ccc(/C=C3/C(=N)N4C(=NC3=O)SN=C4S(C)(=O)=O)cc2)cc1 | 104 | 78.9 | – | –
51 | O=C(O)c1cc(-c2ccc(/C=N/Nc3ccc(Cl)cc3)o2)ccc1Cl | 87.3 | 62 | – | –
52 | C=CCOc1ccc(C(c2c(C(=O)O)[nH]c3ccccc23)c2c(C(=O)O)[nH]c3ccccc23)cc1 | 89 | – | 91.1% (inactive) | minimum viability (at 25 µM, stronger effect = lower value): 85.9%
53 | CCOC(=O)C1=C(C)N=c2s/c(=C/c3ccc(OCC(=O)O)cc3)c(=O)n2C1c1ccc(SC)cc1 (centres undefined) | 101 | 88.1 | 88.1% (inactive) | –

From PubChem BioAssay AID2286 (Southern Research Specialized Biocontainment Screening …, 2010)
